Assay results published in patent US20100160255A1, “SPIRO-CYCLIC COMPOUND” (Takeda Pharmaceutical Company Limited, priority 2005, published 2010).
Like-named read-outs stand apart in the source and are kept apart here.

Experiments:
[1] = target: T1, human ACC1 (Homo sapiens, UniProt Q13085); test: ACC1 inhibitory activity (malachite green absorbance assay, recombinant enzyme); type: biochemical
T1 construct: made in house; host or cells: SF-9 insect cells, recombinant baculovirus BAC-ACC1
Description: The ACC1 inhibitory activity of the compound of the present invention was evaluated by the following method.
(§1) Human ACC1 gene was cloned by PCR using human liver cDNA library (Clontech) as a template, and Primer 1 and Primer 2 shown below. Primer 1 and Primer 2 were prepared by adding recognition sequence of restriction enzymes SalI and NotI based on the information of the base sequence (Genbank Accession U19822) of human ACC1 gene.
(§2) PCR was performed using Pyrobest DNA polymerase (TAKARA BIO INC.). The obtained PCR product was cloned to pT7 Blue vector (Novagen) which was, after confirmation of the base sequence, digested with restriction enzymes SalI and NotI. The obtained DNA fragment was inserted into pFAST-BacHTc (Invitrogen) digested with restriction enzymes SalI and NotI to give expression plasmid ACC1/pFAST-BacHTc.
Using the expression plasmid and BAC-TO-BAC Baculovirus Expression System (Invitrogen), virus stock BAC-ACC1 of recombinant Baculovirus was prepared.
(§3) SF-9 cells (Invitrogen) were sown at 1×10^6 cells/mL to insect cell culture medium (1 L, Sf-900II SFM medium (Invitrogen) containing 10% fetal bovine serum (Trace), 50 mg/L gentamicin (Invitrogen) and 0.1% Pluronic F-68 (Invitrogen)), and shaking culture was performed using a 2 L volume Erlenmeyer flask at 27° C., 100 rpm.
After culturing for 24 hr, the recombinant Baculovirus BAC-ACC1 (10 mL) was added, and the mixture was further cultured for 3 days. The culture medium was centrifuged at 1000×g for 5 min to give virus-infected cells. The infected cells were washed with phosphate buffered saline (Invitrogen) and centrifuged under the same conditions, and the obtained cells were cryopreserved at −80° C.
The cryopreserved cells were thawed in ice, suspended in 25 mM HEPES buffer (100 mL, pH 7.5) containing 10% Glycerol, 0.13 M NaCl, 1 mM EDTA, 25 mM sodium β-glycerophosphate, 1 mM sodium orthovanadate, added with Complete Protease Inhibitor (Boehringer). The obtained suspension was homogenized 3 times with a Polytron homogenizer (Kinematica) at 20,000 rpm for 30 seconds. The obtained cell disrupt solution was clarified by centrifugation at 185700×g for 50 min and filtrated using a 0.45 μm filter. The filtrate was passed through a column packed with Ni-NTA Super Flow Gel (QIAGEN, 12 mL) at a flow rate of about 5 mL/min. The column was washed with buffer A (50 mM HEPES containing 0.3M NaCl, pH 7.5), further washed with buffer A containing 20 mM Imidazole, and eluted with buffer A containing 100 mM Imidazole. The eluate was concentrated with Vivaspin 20 (Vivascience) having a molecular weight cut off of 30 K. The obtained concentrate was dialyzed using Sephadex G-25 (Amersham Bioscience K.K., 358 mL) equilibrated with 50 mM HEPES (pH7.5) containing 10 mM MgCl2, 2 mM dithiothreitol, 10 mM tripotassium citrate and 0.3M NaCl. The dialysate was concentrated with Vivaspin 20 (Vivascience) having a molecular weight cut off of 30 K and the concentrate was filtered through a 0.22 μm filter to give ACC1. The obtained ACC1 was cryopreserved at −80° C.
ACC1 (0.93 mg/ml) obtained in (2) above was diluted to a concentration of 8 μg/ml with an enzyme reaction buffer (50 mM HEPES (pH7.5), 10 mM MgCl2, 10 mM tripotassium citrate, 2 mM dithiothreitol, 0.75 mg/ml fatty acid free BSA), and added to each well of a 384 well assay plate (Nunc 265196) by 10 μl. […]

[2] = target: T2, human ACC2 (Homo sapiens, UniProt O00763); test: ACC2 inhibitory activity (malachite green absorbance assay, recombinant ACC2(Nd)); type: biochemical
T2 construct: made in house; host or cells: SF-9 insect cells, recombinant baculovirus BAC-ACC2(Nd)
T2 sequence (O00763 117-2458 limits assumed): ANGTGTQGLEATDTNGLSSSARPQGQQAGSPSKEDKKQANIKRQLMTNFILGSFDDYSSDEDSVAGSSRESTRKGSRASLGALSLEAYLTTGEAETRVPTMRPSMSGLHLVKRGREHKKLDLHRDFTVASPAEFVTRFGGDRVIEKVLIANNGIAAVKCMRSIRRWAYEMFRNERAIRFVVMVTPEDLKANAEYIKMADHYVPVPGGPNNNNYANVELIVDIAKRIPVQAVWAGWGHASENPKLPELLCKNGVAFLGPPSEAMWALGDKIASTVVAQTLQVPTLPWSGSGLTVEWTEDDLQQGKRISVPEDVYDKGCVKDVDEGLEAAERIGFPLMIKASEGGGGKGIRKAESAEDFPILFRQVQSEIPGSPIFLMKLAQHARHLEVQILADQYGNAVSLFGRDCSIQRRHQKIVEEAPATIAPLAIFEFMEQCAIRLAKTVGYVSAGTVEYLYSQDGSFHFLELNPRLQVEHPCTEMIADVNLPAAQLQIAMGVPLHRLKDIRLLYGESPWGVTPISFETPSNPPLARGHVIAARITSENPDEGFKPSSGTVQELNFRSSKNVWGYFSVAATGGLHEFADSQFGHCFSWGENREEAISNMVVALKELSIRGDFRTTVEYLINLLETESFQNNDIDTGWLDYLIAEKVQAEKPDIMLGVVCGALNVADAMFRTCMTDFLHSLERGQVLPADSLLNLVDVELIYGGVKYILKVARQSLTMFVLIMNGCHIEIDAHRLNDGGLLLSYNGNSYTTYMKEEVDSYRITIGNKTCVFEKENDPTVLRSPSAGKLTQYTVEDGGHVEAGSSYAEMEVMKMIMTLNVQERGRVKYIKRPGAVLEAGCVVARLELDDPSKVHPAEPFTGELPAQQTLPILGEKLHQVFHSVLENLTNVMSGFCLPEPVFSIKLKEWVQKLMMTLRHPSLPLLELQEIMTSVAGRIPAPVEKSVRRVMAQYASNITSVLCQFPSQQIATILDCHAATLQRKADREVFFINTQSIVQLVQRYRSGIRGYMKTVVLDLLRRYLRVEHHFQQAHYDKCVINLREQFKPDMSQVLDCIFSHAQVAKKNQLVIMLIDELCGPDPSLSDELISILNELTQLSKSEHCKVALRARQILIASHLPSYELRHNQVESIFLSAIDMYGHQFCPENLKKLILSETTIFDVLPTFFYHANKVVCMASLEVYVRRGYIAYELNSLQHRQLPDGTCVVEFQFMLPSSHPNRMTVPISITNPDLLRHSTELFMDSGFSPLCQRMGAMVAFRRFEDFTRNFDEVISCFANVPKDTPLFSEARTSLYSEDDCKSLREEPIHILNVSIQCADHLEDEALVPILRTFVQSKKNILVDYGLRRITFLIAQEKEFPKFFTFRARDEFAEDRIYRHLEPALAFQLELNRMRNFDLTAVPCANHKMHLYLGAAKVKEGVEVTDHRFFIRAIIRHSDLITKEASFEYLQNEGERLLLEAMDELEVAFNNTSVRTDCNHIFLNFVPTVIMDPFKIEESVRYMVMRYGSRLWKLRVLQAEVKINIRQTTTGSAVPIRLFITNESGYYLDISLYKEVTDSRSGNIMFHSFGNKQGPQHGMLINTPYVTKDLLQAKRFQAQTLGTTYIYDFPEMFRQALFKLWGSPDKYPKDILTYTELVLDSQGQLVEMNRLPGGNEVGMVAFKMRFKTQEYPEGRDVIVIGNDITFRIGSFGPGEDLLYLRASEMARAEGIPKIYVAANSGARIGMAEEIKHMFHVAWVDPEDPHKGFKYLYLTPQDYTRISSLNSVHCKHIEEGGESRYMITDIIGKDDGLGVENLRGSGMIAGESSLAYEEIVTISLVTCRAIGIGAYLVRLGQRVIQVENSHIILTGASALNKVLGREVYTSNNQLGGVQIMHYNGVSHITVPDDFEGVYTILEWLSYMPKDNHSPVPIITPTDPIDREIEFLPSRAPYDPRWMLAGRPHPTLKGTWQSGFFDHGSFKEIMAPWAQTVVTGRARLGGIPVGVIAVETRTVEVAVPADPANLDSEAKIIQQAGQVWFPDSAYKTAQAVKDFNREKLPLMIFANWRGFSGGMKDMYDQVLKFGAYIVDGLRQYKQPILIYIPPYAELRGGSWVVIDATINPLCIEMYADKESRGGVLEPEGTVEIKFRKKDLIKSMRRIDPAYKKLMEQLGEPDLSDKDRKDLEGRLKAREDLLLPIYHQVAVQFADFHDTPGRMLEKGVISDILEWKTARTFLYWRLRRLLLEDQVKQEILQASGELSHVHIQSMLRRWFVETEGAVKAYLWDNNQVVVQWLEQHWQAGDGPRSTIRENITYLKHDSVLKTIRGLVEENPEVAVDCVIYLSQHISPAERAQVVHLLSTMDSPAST
Description: The ACC2 inhibitory activity of the compound of the present invention was evaluated by the following method.
as §1, with “ACC2” for “ACC1”, “skeletal muscle” for “liver”, “XbaI” for “NotI”, “U89344)” for “U19822)”
as §2, with “XbaI.” for “NotI.”, “pFAST-BacHTa” for “pFAST-BacHTc”, “XbaI” for “NotI”, “ACC2/pFAST-BacHTa.” for “ACC1/pFAST-BacHTc.”
A plasmid for expression of ACC2 free of mitochondrial targeting sequence was prepared by PCR using the expression plasmid as a template, and Primer 3 and Primer 4 shown below.
as §2, with “AflII.” for “NotI.”, “pFAST-BacHTa” for “pFAST-BacHTc”, “AflII” for “NotI”, “ACC2mito7/pFAST-BacHTa.” for “ACC1/pFAST-BacHTc.”
Using the expression plasmid and BAC-TO-BAC Baculovirus Expression System (Invitrogen), virus stock BAC-ACC2 of recombinant Baculovirus (N terminal deletion (hereinafter Nd)) was prepared.
as §3, with “0.5×10^6” for “1×10^6”, “(2” for “(1”, “Wave Bioreactor (Wave) under the conditions of” for “2 L volume Erlenmeyer flask at”, “20 rpm, rocking angle of 6° and oxygen concentration of 30%.” for “100 rpm.”
On day 4 of the culture, 3 L of an insect cell culture medium was added, the rocking angle was set to 8°, and the cells were further cultured. On day 5 of the culture, the recombinant Baculovirus BAC-ACC2(Nd) (100 mL) was added, 5 L of the insect cell culture medium was further added, the rocking angle was set to 11°, and the cells were cultured for 3 days. The culture medium was centrifuged at 1000×g for 10 min to give virus-infected cells. The infected cells were washed with phosphate buffered saline (Invitrogen) and centrifuged under the same conditions, and the obtained cells were cryopreserved at −80° C.
The cryopreserved cells were thawed in ice, suspended in 25 mM HEPES buffer (900 mL, pH 7.5) containing 10% Glycerol, 0.13 M NaCl, 1 mM EDTA, 25 mM sodium β-glycerophosphate, 1 mM sodium orthovanadate, added with Complete Protease Inhibitor (Boehringer). The obtained suspension was homogenized 3 times with a Polytron homogenizer (Kinematica) at 20,000 rpm for 30 seconds. The obtained cell disrupt solution was clarified by centrifugation at 31000×g for 60 min and filtrated using a 0.45 μm filter. The filtrate was passed through a column packed with Ni-NTA Super Flow Gel (QIAGEN, 60 mL) at a flow rate of about 5 mL/min. The column was washed with buffer A (50 mM HEPES containing 0.3M NaCl, pH 7.5), further washed with buffer A containing 20 mM Imidazole, and eluted with buffer A containing 100 mM Imidazole. The eluate was concentrated with Vivaspin 20 (Vivascience) having a molecular weight cut off of 30 K. The obtained concentrate was dialyzed against 50 mM HEPES (pH7.5) containing 10 mM MgCl2, 2 mM dithiothreitol, 10 mM tripotassium citrate and 0.3M NaCl. The dialysate was filtered through a 0.22 μm filter to give ACC2(Nd). The obtained ACC2(Nd) was cryopreserved at −80° C. […]

[3] = Table 8, recombinant human ACC1, 30° C., absorbance 620 nm, read-out: IC50 (ACC1 inhibitory activity)
[4] = Table 9, recombinant human ACC2(Nd), N terminal deletion, 30° C., absorbance 620 nm, read-out: IC50 (ACC2 inhibitory activity)
[5] = Experimental Example 3, same manner as Experimental Example 1, read-out: IC50 values (ACC1 inhibitory activity)
[6] = Experimental Example 4, same manner as Experimental Example 2, read-out: IC50 values (ACC2 inhibitory activity)

Compound	IC50 [1, 3]	IC50 [2, 4]	IC50 [1, 5]	IC50 [2, 6]
CC1(C)CC2(CCCN(C3CCN(C(=O)c4cc(-c5cccnc5)nc5ccccc45)CC3)C2)C(=O)O1 (centres unmarked) [Example 92, 3,3-dimethyl-7-{1-[(2-(pyridin-3-yl)quinolin-4-yl)carbonyl]piperidin-4-yl}-2-oxa-7-azaspiro[4.5]decan-1-one]	4800 nM	110 nM		
CCN1C(=O)CC2(CCCN(C3CCN(C(=O)c4c(NC(=O)NC)sc5ccccc45)CC3)C2)C1=O (centres unmarked) [Example 363, N-(3-{[4-(2-ethyl-1,3-dioxo-2,7-diazaspiro[4.5]dec-7-yl)piperidin-1-yl]carbonyl}-1-benzothien-2-yl)-N′-methylurea]	340 nM	56 nM		
CC(C)N1C(=O)CC2(CCCN(C3CCN(C(=O)c4c(NC(N)=O)sc5ccccc45)CC3)C2)C1=O (centres unmarked) [Example 366, N-(3-{[4-(2-isopropyl-1,3-dioxo-2,7-diazaspiro[4.5]dec-7-yl)piperidin-1-yl]carbonyl}-1-benzothien-2-yl)urea]	180 nM	18 nM		
CCNC(=O)Nc1sc2ccccc2c1C(=O)N1CCC(N2CCCC3(CC(=O)NC3=O)C2)CC1 (centres unmarked) [Example 311, N-(3-{[4-(1,3-dioxo-2,7-diazaspiro[4.5]dec-7-yl)piperidin-1-yl]carbonyl}-1-benzothien-2-yl)-W-ethylurea]	400 nM	31 nM		
CCNC(=O)Nc1sc(-c2ccc(C(=O)O)cc2)cc1C(=O)N1CCC(N2CCCC3(C2)CC(C)(C)OC3=O)CC1 (centres unmarked) [Example 190, 4-(4-{[4-(3,3-dimethyl-1-oxo-2-oxa-7-azaspiro[4.5]dec-7-yl)piperidin-1-yl]carbonyl}-5-[(ethylcarbamoyl)amino]-2-thienyl)benzoic acid]	80 nM	9 nM	≤ 100 nM	≤ 10 nM
CCNC(=O)Nc1sc2ccccc2c1C(=O)N1CCC(N2CCCC3(C2)CC(C)(C)OC3=O)CC1 (centres unmarked) [Example 36, N-(3-{[4-(3,3-Dimethyl-1-oxo-2-oxa-7-azaspiro[4.5]dec-7-yl)piperidin-1-yl]carbonyl}-1-benzothien-2-yl)-N′-ethylurea]	79 nM	8 nM	≤ 100 nM	≤ 10 nM
CCNC(=O)Nc1sc2ccccc2c1C(=O)N1CCC(N2CCCC3(C2)CC(C)(C)OC3=O)CC1 (single isomer, unassigned) [Example 319, N-(3-{[4-(3,3-Dimethyl-1-oxo-2-oxa-7-azaspiro[4.5]dec-7-yl)piperidin-1-yl]carbonyl}-1-benzothien-2-yl)-N′-ethylurea]	30 nM	5 nM	≤ 100 nM	≤ 10 nM
CCCN1C(=O)OC2(CCCN(C3CCN(C(=O)c4c(NC(N)=O)sc5ccccc45)CC3)C2)C1=O (centres unmarked) [Example 343, N-(3-{[4-(2,4-dioxo-3-propyl-1-oxa-3,7-diazaspiro[4.5]dec-7-yl)piperidin-1-yl]carbonyl}-1-benzothien-2-yl)urea]	340 nM	30 nM		
CCN1C(=O)OC2(CCCN(C3CCN(C(=O)c4c(NC(N)=O)sc5ccccc45)CC3)C2)C1=O (centres unmarked) [Example 229, 1-(3-{[4-(3-ethyl-2,4-dioxo-1-oxa-3,7-diazaspiro[4.5]dec-7-yl)piperidin-1-yl]carbonyl}-1-benzothien-2-yl)urea]	290 nM	49 nM		
CCNC(=O)Nc1sc2ccccc2c1C(=O)N1CCC(N2CCCC3(C2)N=C(C)N(CC)C3=O)CC1 (centres unmarked) [Example 401, 1-ethyl-3-(3-{[4-(3-ethyl-2-methyl-4-oxo-1,3,7-triazaspiro[4.5]dec-1-en-7-yl)piperidin-1-yl]carbonyl}-1-benzothien-2-yl)urea]	73 nM	15 nM	≤ 100 nM	
CCNC(=O)Nc1sc(-c2ccccn2)cc1C(=O)N1CCC(N2CCCC3(C2)CC(C)(C)OC3=O)CC1 (centres unmarked) [Example 179, 1-(3-{[4-(3,3-dimethyl-1-oxo-2-oxa-7-azaspiro[4.5]dec-7-yl)piperidin-1-yl]carbonyl}-5-(pyridin-2-yl)-2-thienyl)-3-ethylurea]	140 nM	9 nM	≤ 100 nM	≤ 10 nM
CC(C)N1C(=O)OC2(CCCN(C3CCN(C(=O)c4c(NC(N)=O)sc5ccccc45)CC3)C2)C1=O (centres unmarked) [Example 335, N-(3-{[4-(3-isopropyl-2,4-dioxo-1-oxa-3,7-diazaspiro[4.5]dec-7-yl)piperidin-1-yl]carbonyl}-1-benzothien-2-yl)urea]	260 nM	31 nM		
CCN1C(=O)OC2(CCCN(C3CCN(C(=O)c4c(NC(=O)NC)sc5ccccc45)CC3)C2)C1=O (centres unmarked) [Example 347, N-(3-{[4-(3-ethyl-2,4-dioxo-1-oxa-3,7-diazaspiro[4.5]dec-7-yl)piperidin-1-yl]carbonyl)-1-benzothien-2-yl)-N′-methylurea]	310 nM	34 nM		
